From PubChem BioAssay AID2060499 (Molecular Pharmacology Branch, DTP, NCI, 2025)

System: 777334-354-R2-J4-PDC tumor spheroids with HUVEC/MSC, viability
Assay: Anticancer human tumor 777334-354-R2-J4-PDC patient-derived pancreatic adenocarcinoma cell line growth inhibition [GQUAD]
Settings: for IC50: curve of first compound; for viability, T/C: stronger effect = lower value
In short: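 Viability of tumor cells grown as complex spheroids with endothelial and stromal cells, exposed to drug combinations. Top concentration at or near clinical Cmax (else 10 microM), diluted in half-log increments.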

[1] = second compound 0.0316 µM, first compound 0.0316 µM
[2] = second compound 0.0316 µM, first compound 0.316 µM
[3] = second compound 0.1 µM, first compound 0.0316 µM
[4] = second compound 0.1 µM, first compound 0.316 µM
[5] = second compound 0.316 µM, first compound 0.0316 µM
[6] = second compound 0.316 µM, first compound 0.316 µM
[7] = second compound 1 µM, first compound 0.0316 µM
[8] = second compound 1 µM, first compound 0.316 µM
[9] = second compound 3.16 µM, first compound 0.0316 µM
[10] = second compound 3.16 µM, first compound 0.316 µM
[11] = second compound 10 µM, first compound 0.0316 µM
[12] = second compound 10 µM, first compound 0.316 µM
[13] = second compound 0.0316 µM, first compound 0.000999 µM
[14] = second compound 0.0316 µM, first compound 0.00316 µM
[15] = second compound 0.0316 µM, first compound 0.00999 µM
[16] = second compound 0.0316 µM, first compound 0.0999 µM
[17] = second compound 0.1 µM, first compound 0.000999 µM
[18] = second compound 0.1 µM, first compound 0.00316 µM
[19] = second compound 0.1 µM, first compound 0.00999 µM
[20] = second compound 0.1 µM, first compound 0.0999 µM
[21] = second compound 0.316 µM, first compound 0.000999 µM
[22] = second compound 0.316 µM, first compound 0.00316 µM
[23] = second compound 0.316 µM, first compound 0.00999 µM
[24] = second compound 0.316 µM, first compound 0.0999 µM
[25] = second compound 1 µM, first compound 0.000999 µM
[26] = second compound 1 µM, first compound 0.00316 µM
[27] = second compound 1 µM, first compound 0.00999 µM
[28] = second compound 1 µM, first compound 0.0999 µM
[29] = second compound 3.16 µM, first compound 0.000999 µM
[30] = second compound 3.16 µM, first compound 0.00316 µM
[31] = second compound 3.16 µM, first compound 0.00999 µM
[32] = second compound 3.16 µM, first compound 0.0999 µM
[33] = second compound 10 µM, first compound 0.000999 µM
[34] = second compound 10 µM, first compound 0.00316 µM
[35] = second compound 10 µM, first compound 0.00999 µM
[36] = second compound 10 µM, first compound 0.0999 µM
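Also: spheroids exposed to compounds for 7 days before readout.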

**Q.** Which results are given for `C=CC(=O)N1CCN(c2nc(=O)n(-c3c(C)ccnc3C(C)C)c3nc(-c4c(O)cccc4F)c(F)cc23)C(C)C1` (stereo unspecified) + Cc1[nH]c2ccc(F)cc2c1-c1nc2c3cccnc3c3ncccc3c2[nH]1?
**A.** IC50 (second compound 0.0316 µM): > 10 µM; IC50 (second compound 0.1 µM): > 10 µM; IC50 (second compound 0.316 µM): > 10 µM; IC50 (second compound 1 µM): > 10 µM; IC50 (second compound 3.16 µM): < 0.0316 µM; IC50 (second compound 10 µM): < 0.0316 µM; viability, T/C [1]: 108%; viability, T/C (second compound 0.0316 µM, first compound 0.1 µM): 86.6%; viability, T/C [2]: 111%; viability, T/C (second compound 0.0316 µM, first compound 1 µM): 95.7%; viability, T/C (second compound 0.0316 µM, first compound 3.16 µM): 118%; viability, T/C (second compound 0.0316 µM, first compound 10 µM): 114%; viability, T/C [3]: 99.8%; viability, T/C (second compound 0.1 µM, first compound 0.1 µM): 89.5%; viability, T/C [4]: 105%; viability, T/C (second compound 0.1 µM, first compound 1 µM): 91.3%; viability, T/C (second compound 0.1 µM, first compound 3.16 µM): 102%; viability, T/C (second compound 0.1 µM, first compound 10 µM): 120%; viability, T/C [5]: 82.6%; viability, T/C (second compound 0.316 µM, first compound 0.1 µM): 91.8%; viability, T/C [6]: 92%; viability, T/C (second compound 0.316 µM, first compound 1 µM): 108%; viability, T/C (second compound 0.316 µM, first compound 3.16 µM): 110%; viability, T/C (second compound 0.316 µM, first compound 10 µM): 97.1%; viability, T/C [7]: 81.3%; viability, T/C (second compound 1 µM, first compound 0.1 µM): 79.8%; viability, T/C [8]: 91.6%; viability, T/C (second compound 1 µM, first compound 1 µM): 91.5%; viability, T/C (second compound 1 µM, first compound 3.16 µM): 98.9%; viability, T/C (second compound 1 µM, first compound 10 µM): 94.3%; viability, T/C [9]: 34.3%; viability, T/C (second compound 3.16 µM, first compound 0.1 µM): 44.6%; viability, T/C [10]: 40.6%; viability, T/C (second compound 3.16 µM, first compound 1 µM): 41%; viability, T/C (second compound 3.16 µM, first compound 3.16 µM): 47%; viability, T/C (second compound 3.16 µM, first compound 10 µM): 40.4%; viability, T/C [11]: 28.9%; viability, T/C (second compound 10 µM, first compound 0.1 µM): 31.5%; viability, T/C [12]: 34.7%; viability, T/C (second compound 10 µM, first compound 1 µM): 22.7%; viability, T/C (second compound 10 µM, first compound 3.16 µM): 22.9%; viability, T/C (second compound 10 µM, first compound 10 µM): 46.4%

**Q.** What does the source list for `CC[C@@]1(O)C(=O)OCc2c1cc1n(c2=O)Cc2cc3c(CN(C)C)c(O)ccc3nc2-1` + Cc1[nH]c2ccc(F)cc2c1-c1nc2c3cccnc3c3ncccc3c2[nH]1?
**A.** IC50 (second compound 0.0316 µM): 0.218 µM; IC50 (second compound 0.1 µM): 0.191 µM; IC50 (second compound 0.316 µM): 0.2 µM; IC50 (second compound 1 µM): 0.124 µM; IC50 (second compound 3.16 µM): < 0.000999 µM; IC50 (second compound 10 µM): < 0.000999 µM; viability, T/C [13]: 103%; viability, T/C [14]: 102%; viability, T/C [15]: 104%; viability, T/C [1]: 82.3%; viability, T/C [16]: 69.6%; viability, T/C [2]: 41.3%; viability, T/C [17]: 100%; viability, T/C [18]: 97.1%; viability, T/C [19]: 111%; viability, T/C [3]: 96%; viability, T/C [20]: 61%; viability, T/C [4]: 41.5%; viability, T/C [21]: 89.5%; viability, T/C [22]: 95.5%; viability, T/C [23]: 96.4%; viability, T/C [5]: 85.5%; viability, T/C [24]: 61.7%; viability, T/C [6]: 42.4%; viability, T/C [25]: 79.3%; viability, T/C [26]: 83.6%; viability, T/C [27]: 85.9%; viability, T/C [7]: 83.6%; viability, T/C [28]: 53.9%; viability, T/C [8]: 33%; viability, T/C [29]: 34.2%; viability, T/C [30]: 41.7%; viability, T/C [31]: 35.7%; viability, T/C [9]: 28.4%; viability, T/C [32]: 15.9%; viability, T/C [10]: 14.6%; viability, T/C [33]: 28.4%; viability, T/C [34]: 38.5%; viability, T/C [35]: 30.7%; viability, T/C [11]: 20.2%; viability, T/C [36]: 13.3%; viability, T/C [12]: 11.3%

**Q.** Which IC50 (second compound 0.0316 µM) does the source give for `CCc1c2c(nc3ccc(O)cc13)-c1cc3c(c(=O)n1C2)COC(=O)[C@]3(O)CC` + Cc1[nH]c2ccc(F)cc2c1-c1nc2c3cccnc3c3ncccc3c2[nH]1 here?
**A.** The IC50 was 0.00558 µM.

**Q.** And the IC50 (second compound 0.1 µM)?
**A.** Its IC50 is 0.00614 µM.

**Q.** What about the IC50 (second compound 0.316 µM) of the same compound?
**A.** Its IC50 is 0.00557 µM.

**Q.** What about the IC50 (second compound 1 µM) of the same compound?
**A.** The IC50 was 0.00344 µM.

**Q.** And the IC50 (second compound 3.16 µM)?
**A.** Its IC50 is less than 0.000999 µM.

**Q.** And the IC50 (second compound 10 µM)?
**A.** The IC50 was less than 0.000999 µM.

**Q.** What about the viability, T/C [13] of the same compound?
**A.** Its viability, T/C is 85.3%.

**Q.** And the viability, T/C [14]?
**A.** The viability, T/C was 54.5%.

**Q.** What about the viability, T/C [15] of the same compound?
**A.** The viability, T/C was 44.7%.

**Q.** What about the viability, T/C [1] of the same compound?
**A.** Its viability, T/C is 27.3%.

**Q.** What about the viability, T/C [16] of the same compound?
**A.** Its viability, T/C is 15%.

**Q.** What about the viability, T/C [2] of the same compound?
**A.** The viability, T/C was 9.55%.

**Q.** What about the viability, T/C [17] of the same compound?
**A.** Its viability, T/C is 92.8%.

**Q.** What about the viability, T/C [18] of the same compound?
**A.** The viability, T/C was 60.4%.

**Q.** And the viability, T/C [19]?
**A.** The viability, T/C was 45%.

**Q.** What about the viability, T/C [3] of the same compound?
**A.** Its viability, T/C is 22.2%.

**Q.** And the viability, T/C [20]?
**A.** Its viability, T/C is 14.7%.

**Q.** And the viability, T/C [4]?
**A.** The viability, T/C was 9.29%.

**Q.** And the viability, T/C [21]?
**A.** The viability, T/C was 83.6%.

**Q.** And the viability, T/C [22]?
**A.** The viability, T/C was 60.9%.

**Q.** What about the viability, T/C [23] of the same compound?
**A.** The viability, T/C was 38.2%.

**Q.** And the viability, T/C [5]?
**A.** Its viability, T/C is 26.4%.

**Q.** And the viability, T/C [24]?
**A.** The viability, T/C was 18.1%.

**Q.** What about the viability, T/C [6] of the same compound?
**A.** Its viability, T/C is 11.1%.

**Q.** And the viability, T/C [25]?
**A.** The viability, T/C was 70.7%.

**Q.** And the viability, T/C [26]?
**A.** Its viability, T/C is 51.1%.

**Q.** And the viability, T/C [27]?
**A.** Its viability, T/C is 34.9%.

**Q.** And the viability, T/C [7]?
**A.** Its viability, T/C is 23.9%.

**Q.** And the viability, T/C [28]?
**A.** Its viability, T/C is 16.9%.

**Q.** And the viability, T/C [8]?
**A.** The viability, T/C was 8.25%.

**Q.** And the viability, T/C [29]?
**A.** The viability, T/C was 34.4%.

**Q.** What about the viability, T/C [30] of the same compound?
**A.** Its viability, T/C is 20.1%.

**Q.** And the viability, T/C [31]?
**A.** Its viability, T/C is 15.9%.

**Q.** What about the viability, T/C [9] of the same compound?
**A.** The viability, T/C was 9.11%.

**Q.** What about the viability, T/C [32] of the same compound?
**A.** The viability, T/C was 7.06%.

**Q.** And the viability, T/C [10]?
**A.** Its viability, T/C is 4.83%.

**Q.** What about the viability, T/C [33] of the same compound?
**A.** Its viability, T/C is 26%.

**Q.** What about the viability, T/C [34] of the same compound?
**A.** Its viability, T/C is 17.6%.

**Q.** What about the viability, T/C [35] of the same compound?
**A.** Its viability, T/C is 13.1%.

**Q.** And the viability, T/C [11]?
**A.** The viability, T/C was 7.08%.

**Q.** What about the viability, T/C [36] of the same compound?
**A.** The viability, T/C was 6.95%.

**Q.** What about the viability, T/C [12] of the same compound?
**A.** Its viability, T/C is 5.09%.
